Measurements: US8524701B2, “Use of a specific cyclic amine derivative or the pharmaceutically acceptable salts thereof for the treatment or prevention of heart failure” (Boehringer Ingelheim Pharma GmbH & Co. KG, priority 2002, dated 2013)
Read-outs that look alike come from different tables or passages of the source.

What was measured:
[1] = test system: cat eyes; assay: Electroretinogram (ERG) response to sinusoidally modulated luminances recorded from cat eyes; format: in vivo
Experimental: The content of these references, and more particularly the experimental parts described therein, are herein incorporated by reference.
These studies were based on a measurement of the electroretinogram (ERG) responses recorded from cat eyes, in normal conditions and after administration of zatebradine.
In the following experiment, the same experiment was performed using cilobradine, and the results compared to the results obtained with zatebradine.

[2] = test system: heart rate; format: in vivo, cat; conditions: maximum effect, FIG. 1
Source text: This selection of the dose is based on the result shown in FIG. 1, wherein the reduction of heart rate is plotted against the applied dose of the drug (open circles: zatebradine; filled circles: cilobradine). […] Therefore, by choosing these doses, it can already be assumed that the pharmacological effect on heart rate of cilobradine is better than the pharmacological effect of zatebradine.

[3] = test system: heart rate; format: in vivo; conditions: rat
Experimental: A further similar experiment was performed in order to compare the visual side-effect of cilobradine and zatebradine in conditions where the drugs are pharmacologically effective in reducing heart rate. The aim of this experiment was to compare the visual side-effect of both drugs in another experimental animal model, namely on the retinal system of the rat. Furthermore, the aim of this experiment was also to compare the visual side-effect of both drugs in acute and in chronic (over two weeks) drug treatment conditions.
The ERG measurements were made 30 minutes after injection of the drug. The measured heart rate frequency was:
The ERG measurement was made 30 minutes after injection of the drug. The measured heart rate frequency was:
(§1) The ERG measurement was made after the 2 weeks treatment.

[4] = test system: retinal system of the rat; assay: Electroretinogram (ERG) responses from anesthetized pigmented rats as a function of stimulus frequency; format: in vivo; conditions: for effect on the ERG (visual side-effect): 30 minutes after injection
Source text: The aim of this experiment was to compare the visual side-effect of both drugs in another experimental animal model, namely on the retinal system of the rat. Furthermore, the aim of this experiment was also to compare the visual side-effect of both drugs in acute and in chronic (over two weeks) drug treatment conditions.
The principle of this experiment is again the same as the principle of the experiment performed by Gargini et al. and published in Vision research, vol.
The results of the experiment are visualized by plotting the measurement of the first amplitude of the Fourier transform of the ERG as a function of the applied stimulus frequency (oscillating light stimulus of high luminance and contrast).
The ERG measurements were made 30 minutes after injection of the drug.
The ERG measurement was made 30 minutes after injection of the drug.
as §1

[5] = test system: hyperpolarisation activated, cAMP-modulated cation current channels (HCN) in cardiac conductive tissue; conditions: cited from earlier work
[6] = test system: patients with heart failure; conditions: Shinke et al. 1997; cited from earlier work
[7] = test system: cat eyes; conditions: cited from earlier work

Row | Structure (SMILES) | ERG response (visual side-effect) ([1]; after injection of 0.75 mg/kg body weight, FIG. 3) | reduction of the heart rate ([2]; dose of 0.75 mg/kg body weight) | measured heart rate frequency ([3]; acute treatment 0.3 mg/kg, 30 minutes after injection, control 400, FIG. 4) [beats per min.] | measured heart rate frequency ([3]; acute treatment 1 mg/kg, 30 minutes after injection, control 400, FIG. 4) [beats per min.] | measured heart rate frequency ([3]; acute treatment 3 mg/kg, 30 minutes after injection, control 400, FIG. 4) [beats per min.] | measured heart rate frequency ([3]; chronic treatment 2 weeks, FIG. 7, table row prints 1 mg/kg, text says double dose of 3 mg/kg per day, control 350) [beats per min.] | measured heart rate frequency ([3]; chronic treatment, single dose 1 mg/kg per day during 2 weeks, control 400, FIG. 6) [beats per min.] | visual side-effects ([4]; acute as well as chronic (2 weeks) treatment, FIGS. 4 and 6) | effect on the ERG (visual side-effect) ([4]; acute treatment 0.3, 1 and 3 mg/kg, FIG. 4) | block of HCN channels responsible for the current If [5] | cardiac efficiency [6] | ERG response (visual side-effect) ([1]; 15 minutes after 2.5 mg/kg body weight i.v. injection, FIG. 2) | ERG response (visual side-effect) ([1]; 5 hours after injection of 2.5 mg/kg body weight, FIG. 2) | ERG response amplitude ([7]; after administration of zatebradine, Archives Italiennes de Biologie 1999, Vision Research 1999) | cut-off introduced in the band-pass of the ERG response ([7]; after intravenous injection or oral administration, decreased response amplitude in the range 2 to 15 Hertz) | reduction of the heart rate ([2]; dose of 2.5 mg/kg body weight) | measured heart rate frequency ([3]; acute treatment, single dose 3 mg/kg, 30 minutes after injection, control 428, FIG. 5) [beats per min.] | effect on the ERG (visual side-effect) ([4]; acute treatment, single dose 3 mg/kg, FIG. 5)
1 | COc1ccc(CCN2CCC[C@H](CN3CCc4cc(OC)c(OC)cc4CC3=O)C2)cc1OC [cilobradine, (+)-3-[(N-(2-(3,4-dimethoxy-phenyl)-ethyl)-piperidin-3-(S)-yl)-methyl]-7,8-dimethoxy-1,3,4,5-tetrahydro-2H-3-benzazepin-2-one] | no visual effect can be detected | about 75% | 364 | 316 | 270 | 285 | 260 | without visual side-effects | no effect on the ERG can be detected | selectively block |  |  |  |  |  |  |  | 
2 | COc1ccc(CCN(C)CCCN2CCc3cc(OC)c(OC)cc3CC2=O)cc1OC [zatebradine] |  |  |  |  |  |  |  |  |  | selectively block | improved cardiac efficiency | reduces the amplitude of the response to stimuli of frequency above 1 Hz and shift the corresponding phase lags | visual response is back to normal | reduces the amplitude of the response to stimuli of frequency above 1 Hz | about 2 Hertz | about 44% | 333 | a reduction of the amplitude of the response to stimuli of frequency above 1 Hz and a shift of the corresponding phase lags is observed
